# Experimental data reported in PMC10771590, “Pathway crosstalk between the central metabolic and heme biosynthetic pathways in Phanerochaete chrysosporium” (Applied Microbiology and Biotechnology, 2024).
# Legend:
# [1] = biological target: T1, rPcCS (Phanerodontia chrysosporium, UniProt Q0EAA7); experiment: Heme-derived time-dependent inhibition of PcCS; format: biochemical, Phanerochaete chrysosporium; details: 30-min preincubation of PcCS with hemin at 4 °C; read-out: half-maximal inhibitory concentration (IC50)
# T1 sequence (Q0EAA7 1-446): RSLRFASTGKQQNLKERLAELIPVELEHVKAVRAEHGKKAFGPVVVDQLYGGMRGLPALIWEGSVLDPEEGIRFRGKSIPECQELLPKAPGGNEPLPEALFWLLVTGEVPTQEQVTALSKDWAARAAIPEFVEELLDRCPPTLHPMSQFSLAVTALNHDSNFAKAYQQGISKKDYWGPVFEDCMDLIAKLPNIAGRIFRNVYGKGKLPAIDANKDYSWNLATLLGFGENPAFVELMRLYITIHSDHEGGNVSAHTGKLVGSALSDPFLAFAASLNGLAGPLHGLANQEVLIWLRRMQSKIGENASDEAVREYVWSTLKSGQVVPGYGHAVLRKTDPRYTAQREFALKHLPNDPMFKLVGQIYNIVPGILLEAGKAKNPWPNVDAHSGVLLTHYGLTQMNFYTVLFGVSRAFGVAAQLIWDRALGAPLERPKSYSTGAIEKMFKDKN
# Protocol: Therefore, the data were expressed as relative values against the controls. When 5.7 μM hemin was used, citrate formed was determined by HPLC because of spectroscopic interference with the Soret absorption. All experiments were repeated at least three times, and standard deviations were within 5% in each plot.
# Fig. 5 Inhibitory effect of hemin on PcCS reaction. […] Reaction mixtures contained 1.5 nM rPcCS, 40 mM Tris-HCl (pH 8.5), and 120 μM DTNB. Fixed substrate was added at 12 μM and variable substrate at 3–12 μM. […] Insets: secondary plots of each slope of Lineweaver–Burk plots against the concentration of hemin for determining inhibition constants.
# [2] = test system: P. chrysosporium; experiment: Growth of P. chrysosporium with exogenously added hemin; format: cell-based, Phanerochaete chrysosporium
# Protocol: P. chrysosporium (ATCC 34541) was grown from conidial inocula at 37 °C in a stationary culture (20-ml medium in a 200-ml Erlenmeyer flask). The medium (pH 4.5) used in this study was a ligninolytic medium as previously described (Shimizu et al. [2005]; Kirk et al. [1978]), with 1% glucose as carbon source and 1.2 mM ammonium tartrate as nitrogen source.
# Taking these observations together, a metabolic “pathway crosstalk” is proposed and summarized in Scheme 1. In P. chrysosporium, heme plays an important role as a prosthetic molecule for many cellular processes, in particular, ligninolytic enzymes. Upon addition of exogenous aromatic compounds, fungal cellular metabolism was dramatically shifted from basic energy metabolism to “defensive” or “productive” metabolism. Glucose uptake and consumption and NADPH and succinyl-CoA production were activated in response to exogenous aromatic compounds. Furthermore, the heme synthetic pathway was activated (Shimizu et al. [2005]). Immediate activation of the heme synthesis against aromatics is crucial for the fungus to produce aromatics-degrading enzymes. On the other hand, free heme is highly toxic to the cell. Thus, metabolic overflow of heme biosynthesis causes highly stressful conditions in the mitochondria. The TCA cycle, including CS, is located in the mitochondrial matrix space (Mcalister-Henn and Small [1997]). […]
# [3] = biological target: T2, PcGAPDH (Phanerodontia chrysosporium, UniProt Q01982); experiment: Peroxidative activity of GAPDH–hemin complex (TMB oxidation); format: biochemical, Phanerochaete chrysosporium; details: on binding PcGAPDH in vitro, 1:1 or 1:2 PcGAPDH:hemin, 100 μM H2O2
# T2 construct: 6xHis-tag (pET-30) (cleaved yes); made in house; host or cells: E. coli BL21(DE3)pLysS
# Protocol: Peroxidative activity of the PcGAPDH–hemin complex was investigated by using 3, 3′, 5, 5′-tetramethylbenzidine (TMB) as oxidation substrate. Before the assay, 100 μM PcGAPDH was incubated with hemin at 1:1 or 1:2 stoichiometry for 30 min at 4 °C in the dark. Reaction mixtures (1 ml) contained 40 mM Tris–HCl (pH 7.5), 125 μM TMB, 100 μM hydrogen peroxide, and 1 μM PcGAPDH with hemin at 1:1 or 1:2 stoichiometry. As a control, 1 or 2 μM hemin without PcGAPDH was used. The reaction was monitored at 655 nm upon the formation of benzidine cation radical for 1 min.
# Fig. 6 Peroxidative activity of GAPDH–hemin complex. Peroxidative activity of GAPDH–hemin complex was investigated by using TMB as an oxidation substrate. Reaction mixtures contained 40 mM Tris/HCl (pH 7.5), 125 μM TMB, 100 μM hydrogen peroxide, 1 μM PcGAPDH with hemin at 1:1 (a) or 1:2 (b) stoichiometry. As a control, 1 (c) or 2 (d) μM hemin without PcGAPDH was used. The reaction was monitored at 655 nm for 1 min
# [4] = test system: Glyceraldehyde 3-phosphate dehydrogenase (GAPDH) of Plasmodium falciparum; design: method as in Campanale et al. 2003; details: ref Campanale et al. 2003; cited from earlier work
# T2 sequence (Q01982 whole entry): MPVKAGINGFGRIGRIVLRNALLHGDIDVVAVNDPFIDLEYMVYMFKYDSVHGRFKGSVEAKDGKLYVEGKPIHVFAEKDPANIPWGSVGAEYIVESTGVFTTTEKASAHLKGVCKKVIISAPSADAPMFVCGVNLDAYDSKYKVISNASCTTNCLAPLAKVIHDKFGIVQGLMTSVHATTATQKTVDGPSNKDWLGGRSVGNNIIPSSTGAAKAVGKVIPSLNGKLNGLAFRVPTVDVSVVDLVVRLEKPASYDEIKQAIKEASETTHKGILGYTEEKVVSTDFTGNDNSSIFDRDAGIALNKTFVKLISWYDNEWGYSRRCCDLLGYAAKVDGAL
smiles,measurement,setting,value
C=CC1=C(C)c2cc3[nH]c(cc4nc(cc5[nH]c(cc1n2)c(C)c5CCC(=O)O)C(CCC(=O)O)=C4C)c(C)c3C=C.[Fe+3] [hemin],IC50,[1],1 µM
same,growth of P. chrysosporium,[2]; 1.0 μM hemin added to culture medium in the dark (data not shown),completely shut down
same,growth of P. chrysosporium,[2]; exogenous addition of hemin at sub-μM concentrations,completely shut down
same,TMB-oxidizing ability of heme,[3],suppressed
same,Ki,[4],0.2 µM
